Results as given in ChEMBL document CHEMBL1201862, “PubChem BioAssay data set” (2004).
Each block holds one compound with its values, some of them ahead of it. Active and inactive are the calls of the source.

Key:
Estrogen receptor beta = Estrogen receptor beta (Homo sapiens, UniProt Q92731);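 further: recombinant ER-beta bound to coactivator SRC1 peptide in presence of estradiol agonist; inhibitors block coactivator peptide binding and lower the FRET signal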
HEK293 = assay: inhibitors of LMP1-driven NF-kB reporter, dose response, cell-based, HEK293, luciferase, cherry-pick (AID 588343); assay type: functional; details: Homo sapiens
[1] = MC4R antagonists, dose response, counter-screen for LGR2 antagonist project, cell-based, plate reader, cherry pick (AID 743444); assay type: functional;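 further: transfected HEK 293 cells stimulated with alpha-MSH peptide; potency of inhibitors of the alpha-MSH evoked signal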
[2] = A549 cell cytotoxicity, dose response, cytotoxicity control, plate reader, cherry-pick, antagonist series (AID 743412); assay type: functional, cell-based
[3] = molecular target: Luciferin 4-monooxygenase (Photinus pyralis, UniProt P08659); assay: Counter Screen for Luciferase-based Assay Positives. [Related pubchem assays: 620, 618, 411 ]
[4] = LGR2 antagonists, dose response, cell-based, HEK293, CRE-luciferase reporter, cherry pick, set 2 (AID 743343); assay type: functional;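 further: transfected cells were stimulated with diluted bursicon conditioned medium after compound addition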
HT-1080 = assay: cytotoxicity in HT1080 fibrosarcoma cells, cell-based, fluorescence readout (AID 620); assay type: functional; details: Homo sapiens
Paired box protein Pax-8 = Paired box protein Pax-8 (Homo sapiens, UniProt Q06710); assay: inhibitors of PAX8-driven TPO luciferase reporter, dose response, RMG-I cells, cherry-pick (AID 687027); assay type: functional, cell-based;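 further: luciferase reporter driven by Pax8 target thyroperoxidase promoter measured by SteadyGlo luminescence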
[5] = IGROV1 ovarian cancer cell cytotoxicity, dose response, PAX8 inhibitor project, plate reader, dry powder samples (AID 743043); assay type: functional, cell-based; details: IGROV-1
[6] = molecular target: T1, Heat shock factor protein 1 (Mus musculus, UniProt P38532); assay: HSF1 potentiators in luciferase reporter cells, confirmation, cell-based, NIH3T3, luminescence, dose retest (AID 435004); assay type: functional;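 further: stress induced by proteasome inhibitor MG132 added 30 min after compound; luciferase reporter driven by HSF1 response element in NIH3T3 cells; actives raise luminescence as potentiators of the MG132 stress response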
T1 sequence (P38532 whole entry): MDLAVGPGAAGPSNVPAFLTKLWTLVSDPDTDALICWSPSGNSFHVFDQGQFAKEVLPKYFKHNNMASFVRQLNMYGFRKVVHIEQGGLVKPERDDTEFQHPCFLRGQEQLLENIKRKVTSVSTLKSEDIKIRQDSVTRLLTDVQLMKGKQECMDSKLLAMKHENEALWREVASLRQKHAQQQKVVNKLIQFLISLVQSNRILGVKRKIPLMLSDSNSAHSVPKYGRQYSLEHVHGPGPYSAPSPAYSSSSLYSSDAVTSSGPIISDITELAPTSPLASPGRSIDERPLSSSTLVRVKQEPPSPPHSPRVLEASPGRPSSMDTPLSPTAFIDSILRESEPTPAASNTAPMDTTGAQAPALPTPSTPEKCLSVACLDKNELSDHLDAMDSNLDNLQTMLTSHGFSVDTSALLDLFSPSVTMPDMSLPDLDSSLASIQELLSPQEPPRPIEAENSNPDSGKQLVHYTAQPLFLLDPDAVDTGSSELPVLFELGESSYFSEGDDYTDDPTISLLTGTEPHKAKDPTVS

[7] = human group III sPLA2 inhibitors, dose response, biochemical, QFRET, IC50 (AID 743457);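 further: green fluorescence rise as the enzyme cleaves BODIPY PC-A2 in liposomes; potency for inhibition of the enzyme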
[8] = tested on: Streptococcus sp. 'group A'; assay: growth inhibition of control SK(-) GAS strain, dose response, counter-screen for streptokinase expression inhibitor project, luminescence, kanamycin, BacTiterGlo, confirmation (AID 1900); assay type: functional, organism-based
Streptococcus = assay: Group A Streptococcus viability loss, dose response, counter-screen for streptokinase expression inhibitor project, luminescence, BacTiterGlo (AID 1915); assay type: functional, organism-based;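 further: potency for reduction of bacterial viability or growth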
cells [9] = assay type: functional, cell-based
[10] = molecular target: T2, Trace amine-associated receptor 1 (Homo sapiens, UniProt Q96RJ0); assay: Fluorescence-based cell-based high throughput dose response assay to identify agonists of the human trace amine associated receptor 1 (TAAR1).; assay type: functional
T2 sequence (Q96RJ0 whole entry): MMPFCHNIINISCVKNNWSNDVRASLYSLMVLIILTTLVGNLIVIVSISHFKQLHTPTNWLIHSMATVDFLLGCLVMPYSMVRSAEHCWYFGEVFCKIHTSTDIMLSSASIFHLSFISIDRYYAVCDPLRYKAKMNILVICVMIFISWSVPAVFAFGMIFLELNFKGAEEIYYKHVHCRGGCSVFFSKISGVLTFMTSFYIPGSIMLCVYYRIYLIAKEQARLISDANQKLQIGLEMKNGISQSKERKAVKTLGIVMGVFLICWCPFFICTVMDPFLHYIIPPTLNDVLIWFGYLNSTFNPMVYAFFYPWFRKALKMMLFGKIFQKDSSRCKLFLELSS

[11] = molecular target: T2, Trace amine-associated receptor 1; assay: Counterscreen for agonists of the human trace amine associated receptor 1 (hTAAR1): Fluorescence-based cell-based high throughput dose response assay to identify hTAAR1 agonist that also desensitize TAAR1 receptor response.; assay type: functional
cells [12] = assay type: functional, cell-based; remark: listed apart in the source
[13] = inhibitors of Vif binding to APOBEC3G peptide, primary screen, biochemical, TR-FRET, GST-Vif 1-94, biotin-A3G peptide, dose response retest (AID 1117319); assay type: functional;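 further: TR-FRET signal of purified GST-Vif binding a biotinylated A3G peptide; inhibitors lower the FRET signal by blocking Vif and A3G binding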
[14] = molecular target: T3, Disintegrin and metalloproteinase domain-containing protein 17 (Homo sapiens, UniProt P78536); assay: exosite inhibitors of ADAM17, dose response, biochemical (AID 743260)
[15] = molecular target: T3, Disintegrin and metalloproteinase domain-containing protein 17; assay: ADAM17 protease inhibitors, dose response, counter-screen for ADAM10 exosite inhibitor project, biochemical, quenched FRET substrate (AID 743253)
[16] = ADAM10 inhibitors, peptide cleavage, dose response, biochemical, QFRET (AID 743254);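 further: ADAM10 enzyme with the DM2 quenched FRET peptide as substrate; EDANS fluorescence gain as the protease cuts the substrate; inhibitor potency against ADAM10 proteolytic activity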
[17] = molecular target: T4, RNA-editing ligase 1, mitochondrial (Trypanosoma brucei brucei, UniProt P86926); assay: TbREL1 ligase inhibitors, dose response, biochemical, fluorescence, Trypanosoma brucei (AID 1117295); assay type: functional
T4 sequence (P86926 whole entry): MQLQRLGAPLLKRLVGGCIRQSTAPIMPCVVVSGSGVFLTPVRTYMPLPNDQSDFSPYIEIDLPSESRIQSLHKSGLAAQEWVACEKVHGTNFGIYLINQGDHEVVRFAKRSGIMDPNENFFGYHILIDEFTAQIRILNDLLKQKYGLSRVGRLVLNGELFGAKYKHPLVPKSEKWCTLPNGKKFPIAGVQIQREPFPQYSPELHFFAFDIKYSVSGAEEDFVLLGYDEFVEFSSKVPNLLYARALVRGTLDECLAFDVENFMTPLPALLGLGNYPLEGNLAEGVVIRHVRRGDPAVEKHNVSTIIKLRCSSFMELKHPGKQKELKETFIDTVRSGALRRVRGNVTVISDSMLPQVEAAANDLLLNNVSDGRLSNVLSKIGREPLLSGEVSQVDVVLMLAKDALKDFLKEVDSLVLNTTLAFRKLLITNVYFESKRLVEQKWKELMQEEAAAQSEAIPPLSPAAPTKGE

T3 sequence (P78536 whole entry, the tested form may be a part): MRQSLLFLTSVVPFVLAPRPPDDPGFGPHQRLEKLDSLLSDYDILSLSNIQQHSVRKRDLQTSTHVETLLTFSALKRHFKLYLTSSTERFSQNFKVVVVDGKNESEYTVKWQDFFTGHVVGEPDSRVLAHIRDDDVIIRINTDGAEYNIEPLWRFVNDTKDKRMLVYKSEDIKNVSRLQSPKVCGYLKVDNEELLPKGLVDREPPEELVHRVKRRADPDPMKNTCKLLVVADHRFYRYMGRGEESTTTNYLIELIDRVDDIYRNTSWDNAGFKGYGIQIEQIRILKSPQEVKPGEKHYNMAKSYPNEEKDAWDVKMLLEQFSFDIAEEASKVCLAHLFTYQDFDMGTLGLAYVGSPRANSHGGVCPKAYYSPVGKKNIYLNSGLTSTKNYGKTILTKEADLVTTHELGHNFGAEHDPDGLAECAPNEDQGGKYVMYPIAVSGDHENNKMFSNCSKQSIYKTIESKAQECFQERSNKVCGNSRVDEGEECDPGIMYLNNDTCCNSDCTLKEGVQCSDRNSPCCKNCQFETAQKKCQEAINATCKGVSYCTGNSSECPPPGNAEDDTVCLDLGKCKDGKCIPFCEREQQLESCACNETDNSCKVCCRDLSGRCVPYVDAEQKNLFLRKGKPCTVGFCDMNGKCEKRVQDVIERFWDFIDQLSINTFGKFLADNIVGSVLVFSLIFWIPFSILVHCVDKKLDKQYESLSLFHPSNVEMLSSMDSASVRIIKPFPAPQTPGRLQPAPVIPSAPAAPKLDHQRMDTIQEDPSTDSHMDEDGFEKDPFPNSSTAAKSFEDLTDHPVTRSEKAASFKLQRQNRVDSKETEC
Sequence of Estrogen receptor beta (Q92731 whole entry): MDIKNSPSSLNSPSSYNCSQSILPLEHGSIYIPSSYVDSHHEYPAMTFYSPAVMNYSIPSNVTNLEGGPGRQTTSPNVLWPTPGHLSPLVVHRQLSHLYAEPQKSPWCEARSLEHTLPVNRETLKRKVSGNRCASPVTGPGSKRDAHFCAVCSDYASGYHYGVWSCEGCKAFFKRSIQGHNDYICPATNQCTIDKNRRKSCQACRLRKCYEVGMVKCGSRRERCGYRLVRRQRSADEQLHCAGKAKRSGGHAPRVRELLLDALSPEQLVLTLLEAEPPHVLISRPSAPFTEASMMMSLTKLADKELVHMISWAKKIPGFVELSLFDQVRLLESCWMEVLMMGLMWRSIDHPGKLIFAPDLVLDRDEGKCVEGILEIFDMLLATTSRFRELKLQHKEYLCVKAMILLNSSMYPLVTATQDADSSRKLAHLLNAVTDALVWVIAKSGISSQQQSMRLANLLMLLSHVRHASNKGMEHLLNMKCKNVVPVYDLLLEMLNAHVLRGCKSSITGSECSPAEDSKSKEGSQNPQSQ
Sequence of Paired box protein Pax-8 (Q06710 whole entry): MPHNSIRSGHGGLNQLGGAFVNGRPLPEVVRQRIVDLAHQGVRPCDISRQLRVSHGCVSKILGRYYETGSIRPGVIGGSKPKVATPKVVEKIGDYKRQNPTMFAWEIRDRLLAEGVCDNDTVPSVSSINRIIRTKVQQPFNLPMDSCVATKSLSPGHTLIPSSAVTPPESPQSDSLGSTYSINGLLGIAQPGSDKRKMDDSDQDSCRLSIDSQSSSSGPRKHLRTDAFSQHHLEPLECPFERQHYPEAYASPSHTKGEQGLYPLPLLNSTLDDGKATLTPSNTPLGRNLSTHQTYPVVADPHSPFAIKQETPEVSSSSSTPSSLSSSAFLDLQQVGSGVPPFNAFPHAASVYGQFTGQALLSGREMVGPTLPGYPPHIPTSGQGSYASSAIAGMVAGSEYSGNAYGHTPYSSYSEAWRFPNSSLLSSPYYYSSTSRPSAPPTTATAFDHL
Sequence of Luciferin 4-monooxygenase (P08659 whole entry): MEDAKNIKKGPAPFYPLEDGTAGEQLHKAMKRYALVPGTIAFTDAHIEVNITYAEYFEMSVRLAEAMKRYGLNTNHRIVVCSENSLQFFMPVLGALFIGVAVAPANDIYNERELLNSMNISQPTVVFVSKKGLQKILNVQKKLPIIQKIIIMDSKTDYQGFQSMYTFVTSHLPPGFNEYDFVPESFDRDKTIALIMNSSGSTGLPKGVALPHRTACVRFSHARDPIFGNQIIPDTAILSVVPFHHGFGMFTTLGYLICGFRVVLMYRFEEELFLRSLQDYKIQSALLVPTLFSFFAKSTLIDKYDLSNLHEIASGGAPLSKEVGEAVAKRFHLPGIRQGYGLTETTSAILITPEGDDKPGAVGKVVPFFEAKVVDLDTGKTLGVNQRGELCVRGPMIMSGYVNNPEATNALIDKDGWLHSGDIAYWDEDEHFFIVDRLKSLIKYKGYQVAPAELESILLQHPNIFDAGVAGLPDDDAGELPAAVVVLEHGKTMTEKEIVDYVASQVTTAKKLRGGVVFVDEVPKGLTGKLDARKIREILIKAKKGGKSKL

IC50 (Estrogen receptor beta): > 50 µM (not active)
SMILES: COc1ccc(N2CCN(C(=O)CCCn3c(=O)[nH]c4ccsc4c3=O)CC2)cc1

SMILES: COCCn1c(C)cc(C(=O)CSc2nnc3ccccn23)c1C
AC50 (HEK293): 2.88 µM (active)
AC50 [1]: 3.66 µM (active)
AC50 [2]: > 52 µM (inactive)
EC50 [3]: < 0.2 µM (active)
AC50 [4]: 4.03 µM (active)
EC50 (HT-1080): > 50 µM (not active)

SMILES: Cc1ccc(S(=O)(=O)Nc2ccc3c(c2)C(=O)N([C@H](C)CO)C[C@@H](C)[C@H](CN(C)S(=O)(=O)c2ccc(C)cc2)OCCCC[C@H](C)O3)cc1
AC50 (Paired box protein Pax-8): 9.07 µM (active)
AC50 [5]: 51.4 µM (active)

EC50 [6]: > 260 µM (inactive)
IC50 [7]: > 122 µM (inactive)
SMILES: C=CCNC(=S)NNC(=O)c1cccn(Cc2ccc(Cl)c(Cl)c2)c1=O

SMILES: Cc1cc(C)c2nc(NNC(=O)c3ccc(S(=O)(=O)N4CCCCC4)cc3)sc2c1
EC50 [8]: 1.92 µM (active)
EC50 (Streptococcus): 4.91 µM (active)
IC50 [7]: 19 µM (inactive)

SMILES: O=C(N[C@@H](Cc1cccnc1)C(=O)N1CCC[C@H]1C(=O)NCCc1ccccc1Cl)c1cccs1
EC50 (cells [9]): > 29.9 µM (inactive)
EC50 [10]: 8.12 µM (active)
IC50 [11]: 14.4 µM (inactive)
IC50 (cells [12]): > 29.9 µM (inactive)

IC50 [13]: > 100 µM (active)
SMILES: Cc1cc(NC(=O)CSc2nnc(-c3ccoc3C)n2N)no1

IC50 [14]: > 69.5 µM (inactive)
IC50 [15]: > 69.5 µM (inactive)
IC50 [16]: > 69.5 µM (inactive)
SMILES: Cc1ccccc1NC(C)C(=O)N/N=C/c1ccccc1OCc1cccc(Br)c1 (centres undefined)

IC50 [17]: > 96.6 µM (inactive)
SMILES: COc1cc(CN(CCN(C)C)Cc2ccccc2)ccc1OCc1ccccc1

IC50 [17]: > 96.6 µM (inactive)
SMILES: COc1cccc(CNc2nc(NCc3ccccc3)nc3ccsc23)c1
